Measured values reported in patent publication EP1975159A1, “2,3,4,9-Tetrahydro-1H-carbazoles” (Bayer Schering Pharma Aktiengesellschaft, priority 2007, dated 2008).

Biological target: T1, human FSH receptor (Homo sapiens, UniProt P23945)
T1 construct: expressed in transfected cells; host or cells: CHO cells (hFSHR clone 16)
T1 sequence (P23945 18-695): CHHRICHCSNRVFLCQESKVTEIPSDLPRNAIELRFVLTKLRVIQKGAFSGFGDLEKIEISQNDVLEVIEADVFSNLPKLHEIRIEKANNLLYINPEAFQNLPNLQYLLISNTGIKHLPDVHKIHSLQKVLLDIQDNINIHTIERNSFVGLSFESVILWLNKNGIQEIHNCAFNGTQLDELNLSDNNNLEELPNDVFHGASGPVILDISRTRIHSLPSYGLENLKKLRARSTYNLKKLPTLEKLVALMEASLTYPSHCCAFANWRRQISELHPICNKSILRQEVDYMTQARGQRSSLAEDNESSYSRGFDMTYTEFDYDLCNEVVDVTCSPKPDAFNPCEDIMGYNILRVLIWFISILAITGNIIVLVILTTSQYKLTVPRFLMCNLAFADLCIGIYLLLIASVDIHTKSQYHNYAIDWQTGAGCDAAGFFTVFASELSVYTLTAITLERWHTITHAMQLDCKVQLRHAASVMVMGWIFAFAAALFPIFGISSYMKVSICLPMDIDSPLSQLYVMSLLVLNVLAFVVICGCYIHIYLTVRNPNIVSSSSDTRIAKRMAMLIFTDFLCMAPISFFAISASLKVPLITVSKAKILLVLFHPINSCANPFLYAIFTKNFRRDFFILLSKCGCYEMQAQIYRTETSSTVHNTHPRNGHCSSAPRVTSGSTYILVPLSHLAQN
Experiment: HTRF assay for measuring cAMP in cells (FSH antagonism)
Assay type: cell-based
Conditions: FSH-antagonistic effect; CHO cells stably transfected with the human FSH receptor (hFSHR clone 16); in the presence of 1 e-9 mol/l hFSH; 37°C for 2h
Description: HTRF assay for measuring cAMP in cells
The method is based on a competitive immunoassay between native cAMP, which has been produced by the cells, and cAMP which is labelled with XL665. The tracer binding was visualized by a monoclonal antibody, anti-cAMP labelled with cryptate [HTRF = homogeneous time-resolved fluorescence].
The specific signal is inversely proportional to the cAMP concentration of the samples employed.
The 665nm/ 620nm fluorescence ratio was evaluated.
The following material was used: 96-well plates for the tissue culture, 96-well plates with black edge and black base (e.g. Fluotrac 600 from Greiner), 96-well plates for the substance dilutions of polypropylene and cAMP Femtomolar (4000wells Kit, CIS Bio International # 62AM1PEC).
The following reagents were used: BSA (bovine serum albumin) Fraction V protease-free, IBMX (3-isobutyl-1-methylxanthine), hFSH (human follicle stimulating hormone), Triton X-100 analytical grade, potassium fluoride analytical grade, G 418 (Geneticin) and Accutase.
Buffer 1 (washing and testing buffer) contained PBS, 1 mM CaCl2, 1 mM MgCl2, 0.2% glucose; 0.1% BSA, 1 mM IBMX.
Buffer 2 (2x lysis buffer) contained 1% Triton X-100 in PBS (without CaCl2 and MgCl2).
Buffer 3 (assay buffer) contained 50 mM potassium phosphate buffer (pH 7.0); 800 mM potassium fluoride; 0.2% BSA (always added fresh).
On day 1, the cells were seeded in 96-well plates (3x10^4 cells per well hFSHR clone 16 cells (CHO cells stably transfected with the human FSH receptor in 150 µl of medium). The next day, test substance dilutions were made up. For this purpose, all the substances were diluted in ice-cold buffer 1 (with or without hFSH), and the substance dilutions were placed on ice until applied to the cells.
The cell supernatant was then aspirated off, and the cells were washed 2x with 200 µl of buffer 1. The cells were treated with 60 µl of the appropriate substance concentrations at 37°C for 2h. The cells were then lysed with 60 µl of buffer 2 (put onto the supernatant) (on a plate shaker at RT for 30 min).
The test conjugates (XL-665 and anti-cAMP cryptate) were diluted in buffer 3 in accordance with the manufacturers' information. The actual mixture for measurement was pipetted into a black 96-well plate (in each case 15 µl of the cell lysate diluted with 35 µl of buffer 1; firstly 25 µl of XL-665 conjugate were pipetted and, after 10 min, 25 µl of the anti-cAMP cryptate were added). This is followed by incubation at RT for 90 minutes. The measurement was carried out in a PheraStar (BMG).
Tissue culture conditions
• 1) hFSHr clone 16 Ham's F12 PSG 10% FCS 700 µg/ml G 418 (Geneticin) from PAA.
Dose-effect curve (hFSH) for the human receptor: 1 e-8, 3e-9, 1 e-9, 3e-10, 1 e-1 0, 3e-11, 1 e-11, 3e-12 mol/l.
The test substances were employed in suitable dilutions in the absence (test for agonism) and in the presence of 1 e-9 mol/l hFSH.
The values of the well ratio were averaged and then entered directly in SigmaPlot versus the concentrations. The maximum and minimum values were determined for each plate, and half the difference is to be regarded as IC50.

| SMILES | IC50 |
| --- | --- |
| COc1ccc2nc(-c3ccccc3)cc(C(=O)NC3(CO)CCc4[nH]c5cc(Cl)c(F)cc5c4C3)c2c1 (centres unmarked) [Example 13, 6-Methoxy-2-phenyl-quinoline-4-carboxylic acid (7-chloro-6-fluoro-3-hydroxymethyl-2,3,4,9-tetrahydro-1 H-carbazol-3-yl)-amide] | 8000 nM |
| CNC(=O)c1ccc(-c2ccc(OC(C)C)c(C(=O)NC3(CO)CCc4[nH]c5ccc(Cl)cc5c4C3)c2)cc1Cl (centres unmarked) [Example 34, 3'-Chloro-4-isopropoxy-biphenyl-3,4'-dicarboxylic acid 3-[(6-chloro-3-hydroxymethyl-2,3,4,9-tetrahydro-1 H-carbazol-3-yl)-amide] 4'-methylamide] | 1500 nM |
| CNC(=O)c1ccc(-c2ccc(OC(C)C)c(C(=O)NC3(CO)CCc4[nH]c5ccc(C)cc5c4C3)c2)cc1Cl (centres unmarked) [Example 32, 3'-Chloro-4-isopropoxy-biphenyl-3,4'-dicarboxylic acid 3-[(3-hydroxymethyl-6-methyl-2,3,4,9-tetrahydro-1H-carbazol-3-yl)-amide] 4'-methylamide] | 3000 nM |
| CNC(=O)c1ccc(-c2ccc(OC(C)C)c(C(=O)NC3(CO)CCc4[nH]c5c(Cl)cccc5c4C3)c2)cc1Cl (centres unmarked) [Example 30, 3'-Chloro-4-isopropoxy-biphenyl-3,4'-dicarboxylic acid 3-[(8-chloro-3-hydroxymethyl-2,3,4,9-tetrahydro-1H-carbazol-3-yl)-amide] 4'-methylamide] | 200 nM |

Continued by falling IC50, values first:

| IC50 | SMILES |
| --- | --- |
| 4000 nM | COc1ccc(-c2ccc(OC(C)C)c(C(=O)NC3(CO)CCc4[nH]c5c(C)ccc(C)c5c4C3)c2)cc1OC (centres unmarked) [Example 19, 4-Isopropoxy-3',4'-dimethoxy-biphenyl-3-carboxylic acid (3-hydroxymethyl-5,8-dimethyl-2,3,4,9-tetrahydro-1H-carbazol-3-yl)-amide] |
| 900 nM | CNC(=O)c1ccc(-c2ccc(OC(C)C)c(C(=O)NC3(CO)CCc4[nH]c5c(Cl)ccc(Cl)c5c4C3)c2)cc1Cl (centres unmarked) [Example 25, 3'-Chloro-4-isopropoxy-biphenyl-3,4'-dicarboxylic acid 3-[(5,8-dichloro-3-hydroxymethyl-2,3,4,9-tetrahydro-1 H-carbazol-3-yl)-amide] 4'-methyl-amide] |
| 750 nM | Cc1ccc2[nH]c3c(c2c1Cl)CC(CO)(NC(=O)c1cc(-c2cc4ccccc4o2)ccc1OC(C)C)CC3 (centres unmarked) [Example 40, 5-Benzofuran-2-yl-N-(5-chloro-3-hydroxymethyl-6-methyl-2,3,4,9-tetrahydro-1H-carbazol-3-yl)-2-isopropoxy-benzamide] |
| 70 nM | CNC(=O)c1ccc(-c2ccc(OC(C)C)c(C(=O)NC3(CO)CCc4[nH]c5ccc(F)cc5c4C3)c2)cc1Cl (centres unmarked) [Example 33, 3'-Chloro-4-isopropoxy-biphenyl-3,4'-dicarboxylic acid 3-[(6-fluoro-3-hydroxymethyl-2,3,4,9-tetrahydro-1H-carbazol-3-yl)-amide] 4'-methylamide] |
